ChEMBL document CHEMBL2396617, “Activity-lipophilicity relationship studies on P-gp ligands designed as simplified tariquidar bulky fragments” (Bioorg Med Chem Lett, 2013)
Calls of active or inactive are those of the source. No cut-off for these calls is given here.

Columns and labels:
MDCK = assay: Activation of ATPase activity of P-glycoprotein (unknown origin) expressed in MDCK cells assessed as reduction of reduction of ATP level after 2 hrs by luminescence assay; type: cell-based; conditions: Homo sapiens
[1] = P-glycoprotein-mediated transport in human Caco2 cells assessed as efflux ratio of apparent permeability from basolateral to apical over apical to basolateral after 120 mins; type: ADME, cell-based; conditions: caco-2, 2 h
[2] = biological target: Multidrug resistance-associated protein 1 (Homo sapiens, UniProt P33527); assay: Inhibition of MRP1 (unknown origin) expressed in MDCK cells assessed as reduction of calcein-AM transport after 30 mins by fluorescence assay; type: cell-based
[3] = biological target: T1, Broad substrate specificity ATP-binding cassette transporter ABCG2 (Homo sapiens, UniProt Q9UNQ0); assay: Inhibition of BCRP (unknown origin) expressed in MDCK cells assessed as reduction of […] transport after 30 mins by fluorescence assay; type: cell-based
T1 sequence (Q9UNQ0 whole entry): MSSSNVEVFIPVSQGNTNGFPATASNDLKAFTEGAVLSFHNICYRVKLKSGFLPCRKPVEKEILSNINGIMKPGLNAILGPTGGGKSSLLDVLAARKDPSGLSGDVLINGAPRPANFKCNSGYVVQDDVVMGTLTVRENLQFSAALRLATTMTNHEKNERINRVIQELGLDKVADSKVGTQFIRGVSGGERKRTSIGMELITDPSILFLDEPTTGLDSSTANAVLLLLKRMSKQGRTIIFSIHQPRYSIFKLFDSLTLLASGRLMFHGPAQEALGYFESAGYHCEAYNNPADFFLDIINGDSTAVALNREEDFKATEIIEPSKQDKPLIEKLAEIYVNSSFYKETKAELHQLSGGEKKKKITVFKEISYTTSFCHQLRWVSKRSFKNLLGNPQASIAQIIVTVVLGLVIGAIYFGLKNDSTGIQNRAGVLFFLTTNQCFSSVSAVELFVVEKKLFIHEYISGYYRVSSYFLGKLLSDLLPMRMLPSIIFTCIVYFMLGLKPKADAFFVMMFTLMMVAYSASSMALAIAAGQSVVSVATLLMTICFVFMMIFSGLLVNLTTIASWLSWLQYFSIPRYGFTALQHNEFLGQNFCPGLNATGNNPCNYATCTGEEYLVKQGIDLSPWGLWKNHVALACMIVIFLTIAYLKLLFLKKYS

[4] = Inhibition of P-glycoprotein (unknown origin) expressed in MDCK cells assessed as reduction of calcein-AM transport after 30 mins by fluorescence assay; type: cell-based, Homo sapiens

Chain of Multidrug resistance-associated protein 1 (P33527 whole entry): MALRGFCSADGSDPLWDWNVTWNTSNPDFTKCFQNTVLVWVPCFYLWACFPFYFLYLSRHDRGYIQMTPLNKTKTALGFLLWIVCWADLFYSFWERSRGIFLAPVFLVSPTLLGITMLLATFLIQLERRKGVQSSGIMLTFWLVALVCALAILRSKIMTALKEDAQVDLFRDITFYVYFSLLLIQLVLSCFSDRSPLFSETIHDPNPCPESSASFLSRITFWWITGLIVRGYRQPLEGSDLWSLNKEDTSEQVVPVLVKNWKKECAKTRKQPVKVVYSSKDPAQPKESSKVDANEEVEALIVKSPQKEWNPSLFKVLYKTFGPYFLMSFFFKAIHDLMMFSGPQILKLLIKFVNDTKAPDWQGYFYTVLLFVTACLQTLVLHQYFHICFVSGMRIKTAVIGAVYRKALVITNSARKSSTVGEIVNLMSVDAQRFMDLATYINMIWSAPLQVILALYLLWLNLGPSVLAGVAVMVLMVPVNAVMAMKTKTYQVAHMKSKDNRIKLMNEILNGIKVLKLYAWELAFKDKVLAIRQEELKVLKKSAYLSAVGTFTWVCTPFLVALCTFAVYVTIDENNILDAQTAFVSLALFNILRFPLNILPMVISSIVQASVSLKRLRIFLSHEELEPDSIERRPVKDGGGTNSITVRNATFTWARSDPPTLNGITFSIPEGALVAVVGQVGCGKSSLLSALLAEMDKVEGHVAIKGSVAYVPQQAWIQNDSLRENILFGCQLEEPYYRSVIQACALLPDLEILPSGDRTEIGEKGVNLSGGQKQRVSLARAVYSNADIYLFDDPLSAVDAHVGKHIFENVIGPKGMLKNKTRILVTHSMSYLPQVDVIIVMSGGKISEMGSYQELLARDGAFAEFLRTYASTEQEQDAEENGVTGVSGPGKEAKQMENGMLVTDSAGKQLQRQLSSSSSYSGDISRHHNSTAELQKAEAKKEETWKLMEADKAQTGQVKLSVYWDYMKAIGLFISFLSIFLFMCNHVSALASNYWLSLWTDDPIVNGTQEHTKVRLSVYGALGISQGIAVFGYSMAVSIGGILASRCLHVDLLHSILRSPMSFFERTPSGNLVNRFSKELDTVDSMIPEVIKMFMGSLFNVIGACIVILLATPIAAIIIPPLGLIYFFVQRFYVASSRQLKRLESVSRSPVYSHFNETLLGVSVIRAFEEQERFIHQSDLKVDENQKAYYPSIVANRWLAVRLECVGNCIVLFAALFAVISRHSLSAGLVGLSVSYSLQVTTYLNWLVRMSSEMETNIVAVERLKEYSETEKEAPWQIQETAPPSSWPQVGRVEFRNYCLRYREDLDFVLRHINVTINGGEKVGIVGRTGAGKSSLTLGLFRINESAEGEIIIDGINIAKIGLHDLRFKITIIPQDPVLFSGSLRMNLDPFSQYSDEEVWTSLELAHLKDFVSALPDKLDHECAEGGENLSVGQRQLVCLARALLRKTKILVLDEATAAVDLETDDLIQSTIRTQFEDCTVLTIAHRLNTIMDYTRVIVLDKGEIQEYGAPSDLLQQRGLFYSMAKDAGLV

Compound | Activity (MDCK) | Ratio [1] | EC50 [2] [µM] | EC50 [3] [µM] | EC50 [4] [µM]
COc1cc2c(cc1OC)CN(CCCOc1ccc3ccccc3n1)CC2 | inactive | 4.4 | > 100 | > 100 | 6.1
COc1cc2c(cc1OC)CN(CCCCCOc1ccc3ccccc3n1)CC2 | inactive | 2.9 | > 100 | > 100 | 1.2
COc1cc2c(cc1OC)CN(CCOc1ccc3ccccc3n1)CC2 | inactive | 4.6 | > 100 | > 100 | 1.3
COc1cc2c(cc1OC)CN(CCCOc1ccnc3ccccc13)CC2 | inactive | – | > 100 | > 100 | 40
COc1cc2c(cc1OC)CN(CCCCOc1ccc3ccccc3n1)CC2 | inactive | 4.2 | > 100 | > 100 | 4.3
COc1cc2c(cc1OC)CN(C(=O)COc1ccc3ccccc3n1)CC2 | inactive | – | > 100 | > 100 | 67
